The values below come from PubChem BioAssay AID330 (DTP/NCI, 2004).

Structures are written as SMILES. “And” between values parts separate entries of the source, which are not always exact repeats. Equal entries are not always repeated. Toxic doses and inconclusive results are not listed.

This test has as its system P388 leukemia ip, CD2F1 mice, survival T/C. In words: NCI In Vivo Anticancer Drug Screen. Data for tumor model P388 Leukemia (intraperitoneal) in CD2F1 (CDF1) mice. The settings on record: endpoint: median survival time, higher = longer survival. In a few lines:
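Mice carrying the transplanted tumor received test compound or vehicle. Survival was recorded in each group, and the value is the treated-group measurement divided by that of the vehicle-treated control group.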

Where [1] appears, read: dose: 100.0 mg/kg/injection, schedule: Q04DX003 (ip), vehicle: saline with Tween-80.
Where [2] appears, read: dose: 30.0 mg/kg/injection, schedule: Q01DX005 (ip), vehicle: saline with Tween-80.
[3] abbreviates: dose: 60.0 mg/kg/injection, schedule: Q01DX005 (ip), vehicle: saline with Tween-80.
[4] abbreviates: dose: 120.0 mg/kg/injection, schedule: Q01DX005 (ip), vehicle: saline with Tween-80.
The mark [5] stands for this setting: dose: 240.0 mg/kg/injection, schedule: Q01DX005 (ip), vehicle: saline with Tween-80.
[6] abbreviates: dose: 50.0 mg/kg/injection, schedule: Q01DX005 (ip), vehicle: Klucel (hydroxypropylcellulose) (HPC).
The mark [7] stands for this setting: dose: 100.0 mg/kg/injection, schedule: Q01DX005 (ip), vehicle: Klucel (hydroxypropylcellulose) (HPC).
The mark [8] stands for this setting: dose: 200.0 mg/kg/injection, schedule: Q01DX005 (ip), vehicle: Klucel (hydroxypropylcellulose) (HPC).

Consider `CCSc1ncnc2c1ncn2C1OC(CO)C(O)C1O` (stereo unspecified), for which the T/C was 104 % of control under setting [1] and 109 % of control (dose: 200.0 mg/kg/injection, schedule: Q04DX003 (ip), vehicle: saline with Tween-80).

As to `O=C(NC(Cc1ccc(O)cc1)C(=O)N=Nc1c(O)[nH]c2ccccc12)c1ccccc1` (stereo unspecified), the T/C is 90 % of control under setting [2]; 87 % of control and 90 % of control under setting [3]; 90 % of control under setting [4]; 101 % of control under setting [5].

Take `COC(=O)C(CO)Nc1ccccc1` (stereo unspecified): the T/C under setting [3] was 103 % of control, the T/C under setting [4] was 99 % of control and the T/C under setting [5] is 96 % of control.

For the compound `COC(=O)/C=C(\Cl)C(=O)OC`, the T/C by setting is: (dose: 0.62 mg/kg/injection, schedule: Q01DX009 (ip), vehicle: saline with Tween-80) 101 % of control; (dose: 1.25 mg/kg/injection, schedule: Q01DX009 (ip), vehicle: saline with Tween-80) 101 % of control; (dose: 2.5 mg/kg/injection, schedule: Q01DX009 (ip), vehicle: saline with Tween-80) 105 % of control; (dose: 5.0 mg/kg/injection, schedule: Q01DX009 (ip), vehicle: saline with Tween-80) 102 % of control; (dose: 10.0 mg/kg/injection, schedule: Q01DX009 (ip), vehicle: saline with Tween-80) 105 % of control.

As to `O=C1c2ccccc2C2(c3ccc(O)cc3)c3ccccc3Oc3cccc1c32` (stereo unspecified), the T/C (dose: 50.0 mg/kg/injection, schedule: Q01DX005 (ip), vehicle: saline with Tween-80) was 90 % of control; the T/C (dose: 100.0 mg/kg/injection, schedule: Q01DX005 (ip), vehicle: saline with Tween-80) was 92 % of control; the T/C (dose: 200.0 mg/kg/injection, schedule: Q01DX005 (ip), vehicle: saline with Tween-80) is 95 % of control.

Consider `COc1cc2c(cc1OC)C13CCN4CC5=CCOC6CC(=O)N2C1C6C5C3C4` (stereo unspecified) (tested in a mixture with another compound), for which the T/C by setting is: (dose: 12.5 mg/kg/injection, schedule: Q01DX005 (ip), vehicle: saline) 90 % of control; (dose: 25.0 mg/kg/injection, schedule: Q01DX005 (ip), vehicle: saline) 95 % of control; (dose: 50.0 mg/kg/injection, schedule: Q01DX005 (ip), vehicle: saline) 98 % of control.

For `CC12OCCC1C(c1ccccc1[N+](=O)[O-])Nc1ccccc12` (stereo unspecified), the T/C was 114 % of control (dose: 100.0 mg/kg/injection, schedule: Q01DX001 (ip), vehicle: saline with Tween-80); 97 % of control (dose: 200.0 mg/kg/injection, schedule: Q01DX001 (ip), vehicle: saline with Tween-80); 94 % of control (dose: 400.0 mg/kg/injection, schedule: Q01DX001 (ip), vehicle: saline with Tween-80).

Regarding `O=C1c2ccccc2C(=O)C1(c1ccccn1)[N+](=O)[O-]`, the T/C is, setting by setting: under setting [3], 110 % of control; under setting [4], 113 % of control.

In the case of `Cc1ccc(S(=O)(=O)C(C#N)(CCC(=O)/C=C/c2ccccc2)CCC(=O)/C=C/c2ccccc2)cc1`, the T/C is, setting by setting: under setting [6], 99 % of control; under setting [7], 92 % of control; under setting [8], 92 % of control.

On to `COc1ccc(-c2cc(-c3ccc(OC)cc3)nc(-c3ccc(OC)cc3)c2)cc1`, for which the T/C is, setting by setting: under setting [6], 98 % of control; under setting [7], 94 % of control; under setting [8], 89 % of control.

With `CCCCCCCCCC[N+]1([O-])CCCCC1`, the T/C (dose: 50.0 mg/kg/injection, schedule: Q01DX009 (ip), vehicle: saline) is 97 % of control.

For the compound `CCCC(=O)C(=O)c1ccc(O)c(C)c1O`, the T/C was 101 % of control (dose: 50.0 mg/kg/injection, schedule: Q01DX009 (ip), vehicle: saline with Tween-80); 99 % of control (dose: 100.0 mg/kg/injection, schedule: Q01DX009 (ip), vehicle: saline with Tween-80); 102 % of control (dose: 200.0 mg/kg/injection, schedule: Q01DX009 (ip), vehicle: saline with Tween-80).

In the case of `O=C1C=C(Cl)C(=O)C(c2ccc(Cl)cc2)=C1`, the T/C was 100 % of control (dose: 6.25 mg/kg/injection, schedule: Q01DX009 (ip), vehicle: Klucel (hydroxypropylcellulose) (HPC)); 96 % of control (dose: 12.5 mg/kg/injection, schedule: Q01DX009 (ip), vehicle: Klucel (hydroxypropylcellulose) (HPC)); 92 % of control (dose: 50.0 mg/kg/injection, schedule: Q01DX009 (ip), vehicle: Klucel (hydroxypropylcellulose) (HPC)).

In the case of `Cn1c2ccccc2c2cnn3c(-c4ccccc4)nnc3c21`, the T/C is 105 % of control (dose: 100.0 mg/kg/injection, schedule: Q01DX001 (ip), vehicle: Klucel (hydroxypropylcellulose) (HPC)); 100 % of control (dose: 200.0 mg/kg/injection, schedule: Q01DX001 (ip), vehicle: Klucel (hydroxypropylcellulose) (HPC)); 100 % of control (dose: 400.0 mg/kg/injection, schedule: Q01DX001 (ip), vehicle: Klucel (hydroxypropylcellulose) (HPC)).

With `CCOc1c(N=Nc2cccc([N+](=O)[O-])c2)c(C)nn1C(=S)S`, the T/C runs as follows: (dose: 60.0 mg/kg/injection, schedule: Q01DX005 (ip), vehicle: Klucel + Tween-80) 97 % of control; (dose: 120.0 mg/kg/injection, schedule: Q01DX005 (ip), vehicle: Klucel + Tween-80) 97 % of control; (dose: 240.0 mg/kg/injection, schedule: Q01DX005 (ip), vehicle: Klucel + Tween-80) 98 % of control.

As for `Brc1cn2[n+](c1)[B-]n1cc(Br)c[n+]1[B-]2`, the T/C by setting is: (dose: 15.0 mg/kg/injection, schedule: Q01DX005 (ip), vehicle: saline with Tween-80) 100 % of control; under setting [2], 100 % of control; under setting [3], 100 % of control and 101 % of control.

As for `O=C(O)c1ccc(N2C(=O)CC3(CCCCC3)C2=O)cc1O`, the T/C (dose: 100.0 mg/kg/injection, schedule: Q04DX003 (ip), vehicle: Klucel (hydroxypropylcellulose) (HPC)) is 101 % of control; the T/C (dose: 200.0 mg/kg/injection, schedule: Q04DX003 (ip), vehicle: Klucel (hydroxypropylcellulose) (HPC)) was 102 % of control; the T/C (dose: 400.0 mg/kg/injection, schedule: Q04DX003 (ip), vehicle: Klucel (hydroxypropylcellulose) (HPC)) is 88 % of control.

As to `CCOC(=O)N(NC(=O)c1ccc(N(CCCl)CCCl)cc1)C(C)=O`, the T/C (dose: 3.13 mg/kg/injection, schedule: Q01DX009 (ip), vehicle: other) was 103 % of control; the T/C (dose: 6.25 mg/kg/injection, schedule: Q01DX009 (ip), vehicle: other) was 100 % of control; the T/C (dose: 12.5 mg/kg/injection, schedule: Q01DX009 (ip), vehicle: other) is 101 % of control; the T/C (dose: 25.0 mg/kg/injection, schedule: Q01DX009 (ip), vehicle: other) was 111 % of control; the T/C (dose: 50.0 mg/kg/injection, schedule: Q01DX009 (ip), vehicle: other) was 111 % of control and 114 % of control; the T/C (dose: 88.0 mg/kg/injection, schedule: Q01DX009 (ip), vehicle: other) is 110 % of control. Also, under “dose: 133.0 mg/kg/injection, schedule: Q01DX009 (ip), vehicle: other”, the T/C was 112 % of control.

`CCCCOP(=S)(N1CC1)N1CC1`: the T/C reads like this: (dose: 6.25 mg/kg/injection, schedule: Q04DX003 (ip), vehicle: saline with Tween-80) 154 % of control; (dose: 12.5 mg/kg/injection, schedule: Q04DX003 (ip), vehicle: saline with Tween-80) 195 % of control; (dose: 25.0 mg/kg/injection, schedule: Q04DX003 (ip), vehicle: saline with Tween-80) 236 % of control; (dose: 44.0 mg/kg/injection, schedule: Q04DX003 (ip), vehicle: saline with Tween-80) 204 % of control; (dose: 50.0 mg/kg/injection, schedule: Q04DX003 (ip), vehicle: saline with Tween-80) 259 % of control; (dose: 66.0 mg/kg/injection, schedule: Q04DX003 (ip), vehicle: saline with Tween-80) 200 % of control. Further, the T/C is 179 % of control under setting [1] and 100 % of control (dose: 150.0 mg/kg/injection, schedule: Q04DX003 (ip), vehicle: saline with Tween-80).

With `Cc1ccc(S(=O)(=O)N2CCC(N)=N2)cc1`, the T/C runs as follows: under setting [6], 93 % of control; under setting [7], 98 % of control; under setting [8], 90 % of control.

For the compound `NC(CCCCNC(=O)OCCCCCOC(=O)NCCCCC(N)C(=O)O)C(=O)O` (stereo unspecified), the T/C runs as follows: (dose: 50.0 mg/kg/injection, schedule: Q01DX009 (ip), vehicle: suspension in saline) 95 % of control; (dose: 100.0 mg/kg/injection, schedule: Q01DX009 (ip), vehicle: suspension in saline) 106 % of control; (dose: 200.0 mg/kg/injection, schedule: Q01DX009 (ip), vehicle: suspension in saline) 104 % of control.
